Columns and labels:
human PGD receptor (hDP) = biological target: T1, human PGD receptor (hDP) (Homo sapiens, UniProt Q13258); test: cAMP antagonism test, human prostaglandin D receptor signal; type: cell-based; conditions: selectivity towards hDP, IC50 measured by cAMP antagonism test
T1 sequence (Q13258 1-359): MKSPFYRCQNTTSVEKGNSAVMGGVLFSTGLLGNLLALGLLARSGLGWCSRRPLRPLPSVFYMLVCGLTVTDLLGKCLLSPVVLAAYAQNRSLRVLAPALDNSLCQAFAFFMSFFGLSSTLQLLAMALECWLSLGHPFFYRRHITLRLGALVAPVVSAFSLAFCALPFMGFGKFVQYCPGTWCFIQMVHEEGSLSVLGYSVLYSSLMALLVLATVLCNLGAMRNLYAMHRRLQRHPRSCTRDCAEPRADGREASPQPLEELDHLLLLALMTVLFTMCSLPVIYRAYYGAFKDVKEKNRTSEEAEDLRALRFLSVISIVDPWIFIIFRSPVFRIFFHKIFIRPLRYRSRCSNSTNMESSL
Source text: 3. Detection of Antagonism to the Human Prostaglandin D Receptor Signal
The binding of prostaglandin D2 to the human PGD receptor induces the activation of membrane-located adenylate cyclases and leads to the formation of cAMP. In the presence of the phosphodiesterase inhibitor IBMX, the cAMP accumulated owing to this stimulation and released by cell lysis is used in a competitive detection method. In this test, the cAMP present in the lysate competes with a fluorescence-labelled cAMP (cAMP-d2) for binding to an Eu cryptate-labelled anti-cAMP antibody.
(§1) In the absence of cellular cAMP, a maximal signal is produced, which is attributable to the binding of this cAMP-d2 molecule to the antibody. After excitation of the […] at 337 nm, there is a fluorescence resonance energy transfer (FRET) to the Eu cryptate molecules of the anti-cAMP antibody (labelled therewith), followed by a long-lasting emission signal at 665 nm (and at […]). Both signals are measured in a suitable measurement instrument with a time delay, i.e. after decay of the background fluorescence. Any increase in the low FRET signal caused by prostaglandin E2 administration (measured as well ratio change=emission665nm/emission620nm*10000) indicates the action of antagonists.
3.2.1. Test for Antagonism (Data Per Well of a 384-Well Plate):
(§2) To a test plate with the substance solutions already added (0.05 μl; 100% DMSO, concentration range from 0.8 nM-16.5 nM) were added 4 μl of a cAMP-d2/cell suspension (625000 cells/ml). After a 20-minute preincubation at room temperature (RT), 2 μl of a 3×PGD2 solution (6 nM, in PBS-IBMX) were added and incubated in the presence of the agonist for a further 30 mins at RT (volume: ˜6 μl). Next the reaction was stopped by addition of 2 μl of lysis buffer and incubated for a further 20 mins at RT before the actual measurement (volume: ˜8 μl).

[1] = biological target: EP4 subtype of the human PGE2 receptor (hEP4) (Homo sapiens, UniProt P35408); test: cAMP antagonism test, human prostaglandin E2 (subtype EP4) receptor signal; type: cell-based; conditions: selectivity towards hEP4, IC50 measured by cAMP antagonism test
Source text: 2. Detection of Antagonism to the Human Prostaglandin E2 (Subtype EP4) Receptor Signal
The binding of PGE2 to the EP4 subtype of the human PGE2 receptor induces the activation of membrane-located adenylate cyclases and leads to the formation of cAMP. In the presence of the phosphodiesterase inhibitor IBMX, the cAMP accumulated owing to this stimulation and released by cell lysis is used in a competitive detection method. In this test, the cAMP present in the lysate competes with a fluorescence-labelled cAMP (cAMP-d2) for binding to an Eu cryptate-labelled anti-cAMP antibody.
as §1, with “cAMP” for “cAMP,”
2.2.1. Test for Antagonism (Data Per Well of a 384-Well Plate):
as §2, with “uM)” for “nM)”, “(312500” for “(625000”, “3×PGE2” for “3×PGD2”, “(0.3” for “(6”, “60” for “30”

ovulation = conditions: cited from earlier work

Chain of EP4 subtype of the human PGE2 receptor (hEP4) (P35408 whole entry): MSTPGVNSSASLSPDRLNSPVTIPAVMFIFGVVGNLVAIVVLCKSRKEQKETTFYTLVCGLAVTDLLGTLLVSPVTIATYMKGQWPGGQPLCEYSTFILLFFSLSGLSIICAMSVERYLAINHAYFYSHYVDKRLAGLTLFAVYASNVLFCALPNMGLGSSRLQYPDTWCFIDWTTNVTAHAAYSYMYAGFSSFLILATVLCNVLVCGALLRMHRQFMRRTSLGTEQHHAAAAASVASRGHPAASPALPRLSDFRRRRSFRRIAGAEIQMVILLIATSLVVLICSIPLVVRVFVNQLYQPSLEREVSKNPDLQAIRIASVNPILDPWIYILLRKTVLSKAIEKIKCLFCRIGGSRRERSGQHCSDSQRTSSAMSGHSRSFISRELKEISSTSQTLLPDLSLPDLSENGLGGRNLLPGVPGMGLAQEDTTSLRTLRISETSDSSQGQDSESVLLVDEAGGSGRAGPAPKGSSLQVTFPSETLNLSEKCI

Row | Selectivity hEP2/hDP (human PGD receptor (hDP)) | Selectivity hEP2/hEP4 [1] | SMILES | delay of ovulation (ovulation; 25 mg on 9 successive days, in 4 of 6 patients (Pall et al.)) | cycle length (ovulation; daily administration of 400 mg over the entire cycle, increased from 27.2+/−2.4 days (Edelmann et al. 2010)) [days] | increase in ovulatory dysfunction (ovulation; daily oral administration of 400 mg, depending on time and duration of administration (Edelmann et al. 2013))
1 | xxx (xxx >100) | xxx (xxx >100) | Cc1c(C(=O)NCC2COCCO2)ccc2nn(CC3CCN(C(=O)c4ccc(Oc5ccc(C(F)(F)F)cc5)cc4)CC3)cc12 (single isomer, unassigned) [Example 419, (R or S)—N-(1,4-dioxan-2-ylmethyl)-4-methyl-2-[(1-{4-[4-(trifluoromethyl)-phenoxy]benzoyl}piperidin-4-yl)methyl]-2H-indazole-5-carboxamide] |  |  | 
2 | xxx (xxx >100) | xxx (xxx >100) | Cc1c(C(=O)NCC2CCCCO2)ccc2nn(CC3CCN(C(=O)c4ccc(Oc5ccc(C(F)(F)F)cc5)cc4)CC3)cc12 (single isomer, unassigned) [Example 416, (R or S)-4-methyl-N-(3,4,5,6-tetrahydro-2H-pyran-2-ylmethyl)-2-[(1-{4-[4-(trifluoromethyl)phenoxy]benzoyl}piperidin-4-yl)methyl]-2H-indazole-5-carboxamide] |  |  | 
3 | xxx (xxx >100) | xxx (xxx >100) | Cc1c(C(=O)NCC2CCCCO2)ccc2nn(CC3CCN(C(=O)c4ccc(Oc5ccc(C(F)(F)F)cc5)cc4)CC3)cc12 (single isomer, unassigned) [Example 417, (S or R)-4-methyl-N-(3,4,5,6-tetrahydro-2H-pyran-2-ylmethyl)-2-[(1-{4-[4-(trifluoromethyl)phenoxy]benzoyl}piperidin-4-yl)methyl]-2H-indazole-5-carboxamide] |  |  | 
4 | xxx (xxx >100) | xxx (xxx >100) | Cc1c(C(=O)NCC2COCCO2)ccc2nn(CC3CCN(C(=O)c4ccc(Cl)cc4)CC3)cc12 (single isomer, unassigned) [Example 415, (S or R)-2-{[1-(4-chlorobenzoyl)piperidin-4-yl]methyl}-N-(1,4-dioxan-2-yl-methyl)-4-methyl-2H-indazole-5-carboxamide] |  |  | 
5 | xxx (xxx >100) | xxx (xxx >100) | Cc1c(C(=O)NCC(C)OC2CCC2)ccc2nn(CC3CN(C(=O)c4ccc(Cl)cc4)C3)cc12 (single isomer, unassigned) [Example 155, (S or R)-2-{[1-(4-chlorobenzoyl)azetidin-3-yl]methyl}-N-[2-(cyclobutyloxy)-propyl]-4-methyl-2H-indazole-5-carboxamide] |  |  | 
6 | xxx (xxx >100) | xxx (xxx >100) | Cc1c(C(=O)NCC2COCCO2)ccc2nn(CC3CCN(C(=O)c4ccc(Oc5ccc(C(F)(F)F)cc5)cc4)CC3)cc12 (single isomer, unassigned) [Example 418, (R or S)—N-(1,4-dioxan-2-ylmethyl)-4-methyl-2-[(1-{4-[4-(trifluoromethyl)-phenoxy]benzoyl}piperidin-4-yl)methyl]-2H-indazole-5-carboxamide] |  |  | 
7 | xxx (xxx >100) | xxx (xxx >100) | Cc1c(C(=O)NCC2CCCCO2)ccc2nn(CC3CCN(C(=O)c4ccc(Cl)cc4)CC3)cc12 (single isomer, unassigned) [Example 241, (S or R)-2-{[1-(4-chlorobenzoyl)piperidin-4-yl]methyl}-4-methyl-N-(3,4,5,6-tetrahydro-2H-pyran-2-ylmethyl)-2H-indazole-5-carboxamide] |  |  | 
8 | xxx (xxx >100) | xxx (xxx >100) | Cc1c(C(=O)NCC2CCCCO2)ccc2nn(CC3CCN(C(=O)c4ccc(Cl)cc4)CC3)cc12 (single isomer, unassigned) [Example 240, (R or S)-2-{[1-(4-chlorobenzoyl)piperidin-4-yl]methyl}-4-methyl-N-(3,4,5,6-tetrahydro-2H-pyran-2-ylmethyl)-2H-indazole-5-carboxamide] |  |  | 

Further lines, the molecule ahead of its results:

Row | SMILES | Selectivity hEP2/hDP (human PGD receptor (hDP)) | Selectivity hEP2/hEP4 [1] | delay of ovulation (ovulation; 25 mg on 9 successive days, in 4 of 6 patients (Pall et al.)) | cycle length (ovulation; daily administration of 400 mg over the entire cycle, increased from 27.2+/−2.4 days (Edelmann et al. 2010)) [days] | increase in ovulatory dysfunction (ovulation; daily oral administration of 400 mg, depending on time and duration of administration (Edelmann et al. 2013))
9 | Cc1c(C(=O)NCC2CCCCO2)ccc2nn(CC3CN(C(=O)c4ccc(Cl)cc4)C3)cc12 (single isomer, unassigned) [Example 146, (S or R)-2-{[1-(4-chlorobenzoyl)azetidin-3-yl]methyl}-4-methyl-N-(3,4,5,6-tetrahydro-2H-pyran-2-ylmethyl)-2H-indazole-5-carboxamide] | xxx (xxx >100) | xxx (xxx >100) |  |  | 
10 | COC(C)CNC(=O)c1ccc2nn(CC3CN(C(=O)c4ccc(Cl)cc4)C3)cc2c1C (single isomer, unassigned) [Example 140, (S or R)-2-{[1-(4-chlorobenzoyl)azetidin-3-yl]methyl}-N-(2-methoxypropyl)-4-methyl-2H-indazole-5-carboxamide] | xxx (xxx >100) | xxx (xxx >100) |  |  | 
11 | CS(=O)(=O)c1ccc(C2=C(c3ccccc3)C(=O)OC2)cc1 [rofecoxib, 4-(4-mesylphenyl)-3-phenylfuran-2(5H)-one] |  |  | more than 48 hours |  | 
12 | Cc1c(C(=O)NCC2CCCCO2)ccc2nn(CC3CN(C(=O)c4ccc(Cl)cc4)C3)cc12 (single isomer, unassigned) [Example 145, (R or S)-2-{[1-(4-chlorobenzoyl)azetidin-3-yl]methyl}-4-methyl-N-(3,4,5,6-tetrahydro-2H-pyran-2-ylmethyl)-2H-indazole-5-carboxamide] | xxx (xxx >100) | xxx (xxx >100) |  |  | 
13 | Cc1ccc(-c2cc(C(F)(F)F)nn2-c2ccc(S(N)(=O)=O)cc2)cc1 [celecoxib, 4-[5-(4-methylphenyl)-3-(trifluoromethyl)-1H-pyrazol-1-yl]benzenesulphonamide] |  |  |  | 28.5 ± 2.5 | 25-30%
14 | Cc1c(C(=O)NCC2COCCO2)ccc2nn(CC3CN(C(=O)c4ccc(Cl)cc4)C3)cc12 (single isomer, unassigned) [Example 143, (S or R)-2-{[1-(4-chlorobenzoyl)azetidin-3-yl]methyl}-N-(1,4-dioxan-2-yl-methyl)-4-methyl-2H-indazole-5-carboxamide] | xxx (xxx >100) | xxx (xxx >100) |  |  | 
